For 4 molecules, IC50 results are on record in patent US12583870B2, “Azaheteroaryl compound and application thereof” (SHANGHAI BLUERAY BIOPHARMA CO., LTD., priority 2019, dated 2026).

The target of experiment [1] is T1, EED protein (His6-tagged full-length) binding to H3K27me3 polypeptide (Homo sapiens, UniProt O75530).
T1 construct: His6-tagged full-length EED protein (441 amino acids)
Description: AlphaScreen evaluation of blocking the binding of EED to H3K27Me3. To be noted: EED 60 nM, biotinylated H3K27me3 75 nM, 30 minutes incubation. The essentials:
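His6-tagged full-length EED (60 nM working stock) and biotin-H3K27me3 peptide aa 19–33 (75 nM working stock) incubated 30 min RT with 9-point 3-fold compound series in 25 mM HEPES pH 8.0, 50 mM NaCl, 0.015% Tween 20, 0.5% BSA. Ni-chelate acceptor and streptavidin donor beads (5 μg/mL each), 1 h dark; IC50 from dose-response fit. Biotin-(His)6 counterscreen checked signal interference.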

The subject of experiment [2] is trimethylation level of histone H3K27 in G401 cells. Kind of experiment: ELISA (H3K27 trimethylation) analysis in G401 cells. In kind it is cell-based. The note with it: Homo sapiens, G-401, 72 hours, H3K27me3 standardized to H3. Put shortly: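 Cells exposed 72 h to 10-point 3-fold dilutions, top 10 μM, 0.5% final DMSO. Acid-extracted histones assayed by ELISA (ECL) for H3K27me3, normalized to total H3 and to DMSO control; IC50 from dose-response fit.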
Background: In an ELISA, binding on a coated surface is turned into a signal by an enzyme label.

A further experiment relates to KARPAS-422 cells. Description: Cell proliferation analysis, KARPAS-422, 13 days, CellTiter-Glo. The experiment is classed as cell-based. The note with it: Homo sapiens, 312 h. The essentials: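 KARPAS-422 cells were treated with PRC2 inhibitors over 9 three-fold dilutions from 10 μM top (0.5% DMSO, duplicates) in RPMI-1640 with 15% FBS at 37 °C. Every 3–4 days cells were counted and reseeded at 1×10^4/well with fresh compound. Viability was read by CellTiter-Glo luminescence on day 13.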
In general terms: Cellular ATP, detected with luciferase, serves as a proxy for viable cell number.

SMILES strings stand for the structures.

T1 sequence (O75530 whole entry): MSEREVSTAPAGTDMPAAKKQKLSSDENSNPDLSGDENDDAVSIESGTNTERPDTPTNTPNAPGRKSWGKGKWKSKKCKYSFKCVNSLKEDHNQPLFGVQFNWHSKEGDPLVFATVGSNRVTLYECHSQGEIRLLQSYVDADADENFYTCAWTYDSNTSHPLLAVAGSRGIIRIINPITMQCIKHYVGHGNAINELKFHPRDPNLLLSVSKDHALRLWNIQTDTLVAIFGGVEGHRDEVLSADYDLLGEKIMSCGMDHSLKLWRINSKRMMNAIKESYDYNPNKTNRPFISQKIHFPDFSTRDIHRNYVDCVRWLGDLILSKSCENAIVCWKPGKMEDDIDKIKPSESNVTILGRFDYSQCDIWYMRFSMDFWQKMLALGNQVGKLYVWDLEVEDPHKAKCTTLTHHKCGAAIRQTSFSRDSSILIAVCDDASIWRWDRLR

A word on the IC50: it is the point on the concentration scale where inhibition reaches its midpoint. In the case of `Fc1ccc2c(c1CNc1ncc(-c3ccc4ccnn4c3)c3nncn13)CCO2` [N-((5-fluoro-2,3-dihydrobenzofuran-4-yl)methyl)-8-(pyrazolo[1,5-a]pyridin-6-yl)-[1,2,4]triazolo[4,3-c]pyrimidin-5-amine], the values for the IC50 (in experiment [1]; in experiment [2]; with KARPAS-422 cells) were 0.0043 µM, 0.0061 µM and 0.0154 µM, respectively.

With `Fc1ccc2c(c1CNc1ncc(-c3cnn4cccnc34)c3nncn13)CCO2` [N-((5-fluoro-2,3-dihydrobenzofuran-4-yl)methyl)-8-(pyrazolo[1,5-a]pyrimidin-3-yl)-[1,2,4]triazolo[4,3-c]pyrimidin-5-amine], the IC50 was 0.0021 µM in experiment [1], 0.0104 µM in experiment [2] and 0.0097 µM in the experiment on KARPAS-422 cells.

For the molecule `Fc1ccc2c(c1CNc1ncc(-c3cnc4ccnn4c3)c3nncn13)CCO2` [N-((5-fluoro-2,3-dihydrobenzofuran-4-yl)methyl)-8-(pyrazolo[1,5-a]pyrimidin-6-yl)-[1,2,4]triazolo[4,3-c]pyrimidin-5-amine], the values for the IC50 (in experiment [1]; in experiment [2]; in the experiment on KARPAS-422 cells) were 0.0057 µM, 0.018 µM and 0.0183 µM, respectively.

Consider `Fc1ccc2c(c1CNc1ncc(-c3cccn4ccnc34)c3nncn13)[C@H]1C[C@H]1O2` [N-(((1aR,6bR)-5-fluoro-1a,6b-dihydro-1H-cyclopropa[b]benzofuran-6-yl)methyl)-8-(imidazo[1,2-a]pyridin-8-yl)-[1,2,4]triazolo[4,3-c]pyrimidin-5-amine], for which the IC50 in experiment [1] worked out at 0.0035 µM; in experiment [2], 0.001 µM; in the experiment with KARPAS-422 cells, 0.0006 µM.
